Tests used:
[1] = system: tobacco cultivar Xanthi leaf explants; assay: Agrobacterium transformation of tobacco with selection on detergent or kanamycin; type: cell-based, Nicotiana tabacum; settings: for Transformation frequency (%): confirmed by PCR
Text: Transgenic tobacco (Nicotiana tabacum) cultivar “Xanthi” plants were created using the Agrobacterium tumefaciens DNA delivery method [Horsch et al., 1985] using pIPG833. Selection was on 1% or on 0.05% Tween 20 added to both shoot and root regeneration media. As a control for comparative purposes, pIPG786 was used (carrying the nptII gene for kanamycin resistance) for transformation and 100 micrograms/ml kanamycin was used for selection.
Transgenic tobacco (Nicotiana tabacum) cultivar “Xanthi” plants were created using the Agrobacterium tumefaciens DNA delivery method [Horsch et al., 1985] using pIPG833. Selection was on 1% or on 0.05% Span 20 added to both shoot and root regeneration media.
Transgenic tobacco (Nicotiana tabacum) cultivar “Xanthi” plants were created using the Agrobacterium tumefaciens DNA delivery method [Horsch et al., 1985] using pIPG875. Selection was on 1% Span 20 added to the shoot regeneration medium and 0.05% Span 20 added to the root regeneration medium.

[2] = system: geranium petiole explants; assay: Survival of geranium petiole explants on regeneration medium with detergents; type: cell-based, Pelargonium X hortorum; settings: for Survival of geranium petiole explants on regeneration medium: surviving/total explants
Experimental: Tween 20, a nonionic, fatty acid ester detergent, was evaluated as a potential selective agent for use in geranium (Pelargonium X hortorum) transformation experiments by placing geranium petiole explants into tissue culture with the addition to Tween 20 to the regeneration (shooting) medium normally used in geranium transformations (Robichon et al., 1995). Tween 20 was added at three concentrations: 1%, 0.1% and 0.01%. Each treatment consisted of 40 sterilized petiole explants placed in four tissue culture plates carrying 10 explants each. Survival of the explants was assayed weekly over four weeks on these media. Potential selective agent Span 20, also a nonionic, fatty acid ester detergent, was similarly evaluated, except that concentrations of 1%, 0.5% and 0.25% were evaluated over a twelve week period of time. The nonionic detergent Triton X-100, which is not a fatty acid ester detergent, was included for comparative purposes.

[3] = system: geranium cv. Avenida leaf petiole explants; assay: Agrobacterium transformation of geranium with selection on Span 20 or hygromycin; type: cell-based, Pelargonium X hortorum; settings: for No. of rooted shoots / Transformation frequency (%) / No. of independent petiole explants forming shoots: geranium Avenida, pIPG833 bovine PGE, 160 explants; for Transformation frequency (%): confirmed by PCR; for No. of independent petiole explants forming shoots: half in root medium; for Leaf petioles killed: Span 20 at 1%
Text: Transgenic geranium (Pelargonium X hortorum) cv. “Avenida” plants were created using the Agrobacterium tumefaciens DNA delivery method [Riggs et al., 2001; Sun et al., 2006] using pIPG833. Selection of leaf petiole explants was on 1%, 0.5% and 0.25% Span 20 added to shoot regeneration medium; beginning after three weeks, any shoots that emerged were excised from the petiole piece and transferred to root regeneration medium supplemented with Span at one half the concentration used in the shoot regeneration medium. As a control for comparative purposes, pIPG835 was used (carrying the hygromycin antibiotic resistance gene) for transformation and 10 micrograms/ml hygromycin was used for selection. Span 20 at 1% concentration killed 35% of the leaf petioles after three weeks, and 100% of the petioles after 10 weeks, and no shoots emerged. Span 20 at 0.5% concentration was highly efficient for geranium transformation, allowing no escapes and giving the same confirmed transformation frequency as Span 20 at 0.25%.

rice grain explants = assay: Survival of rice grain explants on regeneration medium with Span 20; type: cell-based, Oryza sativa japonica var. TP-309; settings: for Survival of rice grain explants on regeneration medium: surviving/total explants
Experimental: Span 20 was evaluated as a potential selective agent for use in transformation of rice (Oryza sativa japonica var. TP-309) in a manner similar to that described in Examples 1 and 2, except that the regeneration (shooting) medium used was appropriate for regeneration of rice from callus produced from seeds (Hiei et al., 1997). Selection of rice normally requires longer periods of time than geranium or tomato.

[4] = system: tobacco cultivar Xanthi leaf explants; assay: Agrobacterium transformation of tobacco with selection on detergent or kanamycin; type: cell-based, Nicotiana tabacum; settings: pIPG833 bovine PGE, 0.5% Span 20, 70 explants
[5] = system: rice var. TP-309 callus produced from seeds; assay: Agrobacterium transformation of rice with selection on Span 20; type: cell-based, Oryza sativa japonica var. TP-309; settings: for No. of rooted shoots / Transformation frequency (%) / No. of shoots emerged from seed-derived callus: rice TP-309, pIPG833 bovine PGE, 60 explants; for Transformation frequency (%): confirmed by PCR; for No. of shoots emerged from seed-derived callus: half in root medium
Text: Transgenic rice (Oryza sativa japonica var. TP-309) plants were created using the Agrobacterium tumefaciens DNA delivery method and pIPG833, using callus produced from seeds (Hiei et al., 1997). Selection of was on 1% and 0.5% Span 20 added to shoot regeneration medium; any shoots that emerged were excised from the callus and transferred to root regeneration medium supplemented with Span 20 at one half the concentration used in the shoot regeneration medium. Span 20 at 1% concentration killed over 90% of the callus pieces after 15 weeks and since no shoots emerged, the experiment was terminated. However, three shoots out of 60 rice seeds initially placed into tissue culture emerged on Span 20 and two of these were positive for bovine PGE.

[6] = tobacco Xanthi, nematode lipase (pIPG875), 1% Span 20 shoot medium, 0.05% root medium, 50 explants
[7] = tobacco Xanthi, pIPG833 bovine PGE, 0.5% Span 20, 70 explants
[8] = tobacco Xanthi, pIPG833 bovine PGE, 1% Span 20, 75 explants

In the case of `CCCCCCCCCCCC(=O)OCC(O)C1OCC(O)C1O` (stereo not drawn) [Span 20], the “Tissue provided with pIPG833 producing shoots” value ([1]; regeneration medium with 0.05% detergent) is reported as 41%, the “Tobacco leaf material provided with bovine PGE on pIPG833 producing green shoots” value ([1]; regeneration medium with 1% detergent) is reported as 17% and the “No. of independent calli forming shoots” value [1, 6] is reported as 23. The “No. of rooted shoots” value [1, 6] was 10, the “Transformation frequency (%)” value [1, 6] was 39% and the Transformation efficiency ([1]; tobacco Xanthi, pIPG833, detergent at the 0.05% level) was 12%. For the same compound, the “No. of independent calli forming shoots” value [1, 7] was 29, the “Transformation frequency (%)” value [1, 7] was 12% and the “No. of rooted shoots” value [1, 8] was 13. The “Transformation frequency (%)” value [1, 8] was 8%, the “No. of independent calli forming shoots” value ([1]; tobacco Xanthi, pIPG833 bovine PGE, 1% Span 20 in shoot and root media, 75 explants) was 13 and the “Fate of shoots on rooting medium” value ([1]; tobacco, pIPG875 nematode lipase, 0.05% Span 20 on rooting medium) was “more than half of the shoots died”. For the same compound, the “Survival of geranium petiole explants on regeneration medium” value (“Survival of geranium petiole explants” for short) ([2]; 0.5% detergent, Week 1) was 46/46, the “Survival of geranium petiole explants” value ([2]; 0.5% detergent, Week 3) was 35/46 and the “Survival of geranium petiole explants” value ([2]; 0.5% detergent, Week 7) was 23/46. For the same compound, the “Survival of geranium petiole explants” value ([2]; 0.5% detergent, Week 12) was 5/46, the “Survival of geranium petiole explants” value ([2]; 1% detergent, Week 1) was 114/114 and the “Survival of geranium petiole explants” value ([2]; 1% detergent, Week 3) was 74/114. The “Survival of geranium petiole explants” value ([2]; 1% detergent, Week 7) was 11/114, the “Survival of geranium petiole explants” value ([2]; 1% detergent, Week 12) was 0/114 and the “Killing of geranium explants in tissue culture (in words)” value ([2]; summary of Table 1) was “required twelve weeks to completely kill all geranium explants at the 1% level”. For the same compound, the “No. of rooted shoots” value ([3]; 0.25% Span 20) was 33, the “Transformation frequency (%)” value ([3]; 0.25% Span 20) was 4% and the “No. of independent petiole explants forming shoots” value ([3]; 0.25% Span 20 shoot medium) was 33. For the same compound, the “No. of rooted shoots” value ([3]; 0.5% Span 20) was 6, the “Transformation frequency (%)” value ([3]; 0.5% Span 20) was 4% and the “No. of independent petiole explants forming shoots” value ([3]; 0.5% Span 20 shoot medium) was 6. For the same compound, the “No. of rooted shoots” value ([3]; 1% Span 20) was 0, the “Transformation frequency (%)” value ([3]; 1% Span 20) was 0% and the “No. of independent petiole explants forming shoots” value ([3]; 1% Span 20 shoot medium) was 0. The Nontransgenic escape plants ([3]; geranium, pIPG833, Span 20 at 0.25% in shooting medium and 0.125% in rooting medium) was 81%, the Leaf petioles killed ([3]; geranium, pIPG833, after 10 weeks) was 100% and the Leaf petioles killed ([3]; geranium, pIPG833, after three weeks) was 35%. The “Survival of rice grain explants on regeneration medium” value (“Survival of rice grain explants” below) (rice grain explants; 0.5% Span 20, Week 4) was 60/60, the “Survival of rice grain explants” value (rice grain explants; 0.5% Span 20, Week 14) was 12/60 and the “Survival of rice grain explants” value (rice grain explants; 0.5% Span 20, Week 20) was 2/60. For the same compound, the “Survival of rice grain explants” value (rice grain explants; 1% Span 20, Week 4) was 60/60, the “Survival of rice grain explants” value (rice grain explants; 1% Span 20, Week 14) was 5/60 and the “Survival of rice grain explants” value (rice grain explants; 1% Span 20, Week 20) was 0/60. For the same compound, the “Killing of rice explants in tissue culture (in words)” value (rice grain explants; 1% Span 20, summary of Table 3) was “completely killed all rice explants in twenty weeks”, the “No. of rooted shoots” value [4] was 28 and the “No. of rooted shoots” value ([5]; 0.5% Span 20) was 2. The “Transformation frequency (%)” value ([5]; 0.5% Span 20) was 3%, the “No. of shoots emerged from seed-derived callus” value ([5]; 0.5% Span 20 shoot medium) was 3 and the “No. of rooted shoots” value ([5]; 1% Span 20) was 0. The “Transformation frequency (%)” value ([5]; 1% Span 20) was 0%, the “No. of shoots emerged from seed-derived callus” value ([5]; 1% Span 20 shoot medium) was 0 and the Callus pieces killed ([5]; rice, pIPG833, Span 20 at 1%, after 15 weeks) was “over 90%”.

Source: patent US20080235824A1, “Use of Esterase Genes as Selectable Markers for Transforming Plant Cells” (priority 2006, published 2008)
